Here are results for 27 compounds from patent publication US8134015B2, “Compound inhibiting in vivo phosphorous transport and medicine containing the same” (Kyowa Hakko Kirin Co., Ltd., priority 2003, dated 2012).

One may read the IC50 as the concentration that gives 50% inhibition. Broadly, the inhibition is the change of the read-out against control, counted positive when it falls.

Structures are written as SMILES. Where a name gives a salt, the structure may show the parent alone. Where only a bound is given, the exact number is not on record here.

One assay concerns the target T1, rat NaPi-2b (Rattus norvegicus, UniProt Q9JJ09).
T1 construct: expressed in transfected cells; host or cells: Xenopus oocytes injected with cRNA
T1 sequence (Q9JJ09 1-695): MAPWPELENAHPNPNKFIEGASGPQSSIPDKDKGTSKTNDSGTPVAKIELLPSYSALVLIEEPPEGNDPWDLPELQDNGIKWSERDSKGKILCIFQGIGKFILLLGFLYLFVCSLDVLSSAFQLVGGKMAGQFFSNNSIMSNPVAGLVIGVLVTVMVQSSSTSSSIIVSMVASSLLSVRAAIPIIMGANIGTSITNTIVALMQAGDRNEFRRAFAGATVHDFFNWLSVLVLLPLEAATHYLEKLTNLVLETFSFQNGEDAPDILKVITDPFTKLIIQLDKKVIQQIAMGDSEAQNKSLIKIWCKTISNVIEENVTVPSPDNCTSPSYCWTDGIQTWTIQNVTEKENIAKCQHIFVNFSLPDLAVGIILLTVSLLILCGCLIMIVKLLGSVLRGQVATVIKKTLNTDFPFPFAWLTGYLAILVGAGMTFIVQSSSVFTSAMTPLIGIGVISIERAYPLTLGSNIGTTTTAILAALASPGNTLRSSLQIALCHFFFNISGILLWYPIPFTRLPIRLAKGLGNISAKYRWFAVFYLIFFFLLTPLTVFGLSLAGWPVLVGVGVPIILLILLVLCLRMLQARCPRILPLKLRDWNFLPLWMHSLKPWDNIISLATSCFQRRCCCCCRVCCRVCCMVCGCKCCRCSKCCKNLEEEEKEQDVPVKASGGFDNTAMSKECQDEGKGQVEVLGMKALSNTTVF
Briefly: Sodium-dependent phosphate uptake of Xenopus oocytes which expressed NaPi-2b (32P). Type of assay: cell-based. The following applies: Xenopus oocytes expressing rat NaPi-2b, 32P radioactive phosphorus; read-out: IC50 (phosphate uptake inhibitory activity). Summed up: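 Steps: rat NaPi-2b cDNA cloned from small intestine; cRNA made and injected into oocytes; 2-day expression; 32P phosphate uptake with compound; % inhibition at 300/100 μM taken from one curve.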
On to `COc1ccc(C(=O)Nc2ccccc2C(=O)N/N=C/c2ccc(F)c(Cl)c2)cc1OC` [Compound 32, N-[2-(3-Chloro-4-fluoro-benzylidene-hydrazinocarbonyl)-phenyl]-3,4-dimethoxy-benzamide], for which the IC50 came to 1950 nM.
With `CCN(CC)CCN(C)Cc1cccc(C(=O)Nc2sccc2C(=O)N/N=C/c2cccc(F)c2)c1` [Compound 667, 3-{[(2-Diethylamino-ethyl)-methyl-amino]-methyl}-N-[3-(3-fluoro-benzylidene-hydrazinocarbonyl)-thiophen-2-yl]-benzamide], the IC50 is 30500 nM.
Take `O=C(Nc1ccc(Br)cc1C(=O)N/N=C/c1cccc(F)c1)c1ccco1` [Compound 151, Furan-2-carboxylic acid [4-bromo-2-(3-fluoro-benzylidene-hydrazinocarbonyl)-phenyl]-amide]: the IC50 came out at 3070 nM.
Take `COc1ccc(C(=O)Nc2ccccc2C(=O)N/N=C/c2ccc(C)cc2)cc1` [Compound 51, 4-Methoxy-N-[2-(4-methyl-benzylidene-hydrazinocarbonyl)-phenyl]-benzamide]: the IC50 is 4600 nM.
Same read-out and setting: as for `O=C(Nc1sc2c(c1C(=O)N/N=C/c1cccc(F)c1)CCCC2)c1cccc(CSCCCO)c1` [Compound 607, N-[3-(3-Fluoro-benzylidene-hydrazinocarbonyl)-4,5,6,7-tetrahydro-benzo[b]thiophen-2-yl]-3-(3-hydroxy-propylsulfanylmethyl)-benzamide], the figure is 430 nM.
On the same count and under the same terms, then `Cc1cccc(/C=N/NC(=O)c2cc(Br)ccc2NC(=O)c2ccc(CSc3ccncc3)cc2)c1` [Compound 257, N-[4-Bromo-2-(3-methyl-benzylidene-hydrazinocarbonyl)-phenyl]-4-(pyridin-4-ylsulfanylmethyl)-benzamide], with < 3000 nM; and `O=C(Nc1ccc(N2CCCCC2)cc1C(=O)N/N=C/c1cccc(F)c1)c1cccc(CN2CCN(CCO)CC2)c1` [Compound 867, N-[2-(3-Fluoro-benzylidene-hydrazinocarbonyl)-4-piperidin-1-yl-phenyl]-3-[4-(2-hydroxy-ethyl)-piperazin-1-ylmethyl]-benzamide], with 2240 nM; and `CCN(CC)CCSCc1cccc(C(=O)Nc2ccc(N3CCCCC3)cc2C(=O)N/N=C/c2ccc(C)c(C)c2)c1` [Compound 876, 3-(2-Diethylamino-ethylsulfanylmethyl)-N-[2-(3,4-dimethyl-benzylidene-hydrazinocarbonyl)-4-piperidin-1-yl-phenyl]-benzamide], with < 3000 nM.
For `Cc1csc(NC(=O)c2cccc(CN3CCN(CCO)CC3)c2)c1C(=O)N/N=C/c1ccc(F)cc1` [Compound 577, N-[3-(4-Fluoro-benzylidene-hydrazinocarbonyl)-4-methyl-thiophen-2-yl]-3-[4-(2-hydroxy-ethyl)-piperazin-1-ylmethyl]-benzamide], the IC50 was < 3000 nM.
On to `CCc1ccc(C(=O)Nc2ccc(Br)cc2C(=O)N/N=C/c2cccc(F)c2)cc1` [Compound 178, N-[4-Bromo-2-(3-fluoro-benzylidene-hydrazinocarbonyl)-phenyl]-4-ethyl-benzamide], for which the IC50 worked out at 7540 nM.
On to `O=C(Nc1ccc(Br)cc1C(=O)N/N=C/c1ccc(F)cc1)c1ccccn1` [Compound 496, Pyridin-2-carboxylic acid [4-bromo-2-(4-fluoro-benzylidene-hydrazinocarbonyl)-phenyl]-amide], for which the IC50 turned out to be 640 nM.
`O=C(Nc1ccc(Cl)cc1C(=O)N/N=C/c1ccc(F)cc1)c1cccc(CSc2nc[nH]n2)c1` [Compound 390, N-[4-Chloro-2-(4-fluoro-benzylidene-hydrazinocarbonyl)-phenyl]-3-(1H-[1,2,4]triazol-3-ylsulfanylmethyl)-benzamide]: the IC50 is 450 nM.
For the compound `CCN(CC)CCN(C)Cc1cccc(C(=O)Nc2sc3c(c2C(=O)N/N=C/c2ccc(C)cc2)CCCC3)c1` [Compound 610, 3-{[(2-Diethylamino-ethyl)-methyl-amino]-methyl}-N-[3-(4-methyl-benzylidene-hydrazinocarbonyl)-4,5,6,7-tetrahydro-benzo-[b]thiophen-2-yl]-benzamide], the half-inhibitory concentration (IC50) was 1820 nM.
As to `COc1ccc(/C=N/NC(=O)c2c(C)csc2NC(=O)c2cccc(CN(CC(C)O)CC(C)O)c2)cc1` (stereo not drawn) [Compound 852, 3-{[Bis-(2-hydroxy-propyl)-amino]-methyl}-N-[3-(4-methoxy-benzylidene-hydrazinocarbonyl)-4-methyl-thiophen-2-yl]-benzamide; hydrochloride], the IC50 is < 1000 nM.
Take `COc1ccc(C(=O)Nc2ccc(Br)cc2C(=O)N/N=C/c2ccc(C)cc2)cc1OC` [Compound 62, N-[4-Bromo-2-(4-methyl-benzylidene-hydrazinocarbonyl)-phenyl]-3,4-dimethoxy-benzamide]: the IC50 came to 900 nM.
In the case of `COc1cccc(/C=N/NC(=O)c2cc(Cl)ccc2NC(=O)c2ccc(CN(C)CCO)cc2)c1` [Compound 418, N-[4-Chloro-2-(3-methoxy-benzylidene-hydrazinocarbonyl)-phenyl]-4-{[(2-hydroxy-ethyl)-methyl-amino]-methyl}-benzamide], the IC50 was 9380 nM.
`CCN(CC)CCN(CCN(CC)CC)Cc1cccc(C(=O)Nc2ccc(N3CCCCC3)cc2C(=O)N/N=C/c2ccc(OC)cc2)c1` [Compound 910, 3-{[Bis-(2-diethylamino-ethyl)-amino]-methyl}-N-[2-(4-methoxy-benzylidene-hydrazinocarbonyl)-4-piperidin-1-yl-phenyl]-benzamide]: the IC50 is 7810 nM.
In the case of `COc1ccc(C(=O)Nc2ccc(Br)cc2C(=O)N/N=C/c2ccc(O)cc2)cc1OC` [Compound 64, N-[4-Bromo-2-(4-hydroxy-benzylidene-hydrazinocarbonyl)-phenyl]-3,4-dimethoxy-benzamide], the IC50 stood at 3770 nM.
Regarding `Cc1cc(C(=O)Nc2ccccc2C(=O)N/N=C/c2cccc(F)c2)c(C)o1` [Compound 514, 2,5-Dimethyl-furan-3-carboxylic acid [2-(3-fluoro-benzylidene-hydrazinocarbonyl)-phenyl]-amide], the IC50 came to 2150 nM.
With `COc1ccc(/C=N/NC(=O)c2cc(N3CCCCC3)ccc2NC(=O)c2cccc(CSCCO)c2)cc1` [Compound 885, 3-(2-Hydroxy-ethylsulfanylmethyl)-N-[2-(4-methoxy-benzylidene-hydrazinocarbonyl)-4-piperidin-1-yl-phenyl]-benzamide], the IC50 came out at 1240 nM.
As for `CCN(CC)CCN(C)Cc1cccc(C(=O)Nc2cc(OCCOC)c(OCCOC)cc2C(=O)N/N=C/c2cccc(F)c2)c1` [Compound 1028, 3-{[(2-Diethylamino-ethyl)-methyl-amino]-methyl}-N-[2-(3-fluoro-benzylidene-hydrazinocarbonyl)-4,5-bis-(2-methoxy-ethoxy)-phenyl]-benzamide], the IC50 was 29100 nM.
On to `COc1ccc(/C=N/NC(=O)c2c(C)csc2NC(=O)c2cccc(CN3CCC(CO)CC3)c2)cc1` [Compound 604, 3-(4-Hydroxymethyl-piperidin-1-ylmethyl)-N-[3-(4-methoxy-benzylidene-hydrazinocarbonyl)-4-methyl-thiophen-2-yl]-benzamide], for which the IC50 was 9230 nM.
For `O=C(Nc1ccc(Br)cc1C(=O)N/N=C/c1ccc(F)cc1)c1cccc(CSc2ccncc2)c1` [Compound 196, N-[4-Bromo-2-(4-fluoro-benzylidene-hydrazinocarbonyl)-phenyl]-3-(pyridin-4-ylsulfanylmethyl)-benzamide], the IC50 amounted to 610 nM.

The same assay, now with this note: phosphate uptake, oocytes expressing rat NaPi-2b; 300 μM, determined from inhibition curve.
For `CCN(CC)CCN(C)Cc1cccc(C(=O)Nc2c(C)csc2C(=O)N/N=C/c2ccc(F)cc2)c1` [Compound 528, 3-{[(2-Diethylamino-ethyl)-methyl-amino]-methyl}-N-[2-(4-fluoro-benzylidene-hydrazinocarbonyl)-4-methyl-thiophen-3-yl]-benzamide], the inhibition at 300 µM came to 58.4%.
In turn, `Cc1cccc(/C=N/NC(=O)c2cc(Cl)ccc2NC(=O)c2cccc(CSCc3ccco3)c2)c1` [Compound 699, N-[4-Chloro-2-(3-methyl-benzylidene-hydrazinocarbonyl)-phenyl]-3-(furan-2-ylmethylsulfanylmethyl)-benzamide] registered an inhibition at 300 µM of 58.4%.
`O=C(Nc1ccc(Br)cc1C(=O)N/N=C/c1cccc(F)c1)c1ccc(CN2CCC(CCO)CC2)cc1` [Compound 744, N-[4-Bromo-2-(3-fluoro-benzylidene-hydrazinocarbonyl)-phenyl]-4-[4-(2-hydroxy-ethyl)-piperidin-1-ylmethyl]-benzamide] had an inhibition at 300 µM of 83.7%.
With `COc1ccc(/C=N/NC(=O)c2ccsc2NC(=O)c2cccc(CN(CC(C)O)CC(C)O)c2)cc1` (stereo not drawn) [Compound 780, 3-{[Bis-(2-hydroxy-propyl)-amino]-methyl}-N-[3-(4-methoxy-benzylidene-hydrazinocarbonyl)-thiophen-2-yl]-benzamide], at 300 µM the inhibition was 47.7%.
